From ChEMBL document CHEMBL1147220, “Divinatorins A-C, new neoclerodane diterpenoids from the controlled sage Salvia divinorum” (2003)
In brackets after ≈: the same amount, converted by molar mass. Activity calls are given as the source filed them. The rule behind the calls is not given here.

Key:
Escherichia coli [1] = assay: Antibacterial activity against Escherichia coli ATCC 25922 at 100 ug/disk by disk diffusion method; format: functional, organism-based
Bacillus subtilis [2] = assay: Antibacterial activity against Bacillus subtilis ATCC 6633 at 100 ug/mL by microdilution method; format: functional, organism-based
Staphylococcus aureus [3] = assay: Antibacterial activity against Staphylococcus aureus ATCC 29213 at 100 ug/mL by microdilution method; format: functional, organism-based
Bacillus subtilis [4] = assay: Antibacterial activity against Bacillus subtilis ATCC 6633 at 100 ug/disk by disk diffusion method; format: functional
Staphylococcus aureus [5] = assay: Antibacterial activity against Staphylococcus aureus ATCC 29213 at 100 ug/disk by disk diffusion method; format: functional, organism-based
Escherichia coli [6] = assay: Antibacterial activity against Escherichia coli ATCC 25922 at 100 ug/mL by microdilution method; format: functional, organism-based
Candida albicans [7] = assay: Antifungal activity against Candida albicans ATCC 90028 at 100 ug/mL by microdilution method; format: functional, organism-based
Candida albicans [8] = assay: Antifungal activity against Candida albicans ATCC 90028 at 100 ug/disk by disk diffusion method; format: functional, organism-based
Bacillus subtilis [9] = assay: Antibacterial activity against Bacillus subtilis ATCC 6633 by microdilution method; format: functional
Staphylococcus aureus [10] = assay: Antibacterial activity against Staphylococcus aureus ATCC 29213 by microdilution method; format: functional

Compound | Activity (Escherichia coli [1]) | Activity (Bacillus subtilis [2]) | Activity (Staphylococcus aureus [3]) | Activity (Bacillus subtilis [4]) | Activity (Staphylococcus aureus [5]) | Activity (Escherichia coli [6]) | Activity (Candida albicans [7]) | Activity (Candida albicans [8]) | MIC (Bacillus subtilis [9]) [µg/mL] | zone of inhibition at 100 µg/disc (Bacillus subtilis [4]; read-out: IZ) [mm] | MIC (Staphylococcus aureus [10]) [µg/mL]
C[C@@H]1CC[C@@]2(C)C(C(=O)O)=CC[C@H](O)[C@@H]2[C@@]1(C)CCc1ccoc1 | inactive | inactive | inactive | inactive | inactive | inactive | inactive | inactive |  |  | 
C[C@H]1CC[C@]2(C)C(C(=O)O)=CCC[C@H]2[C@]1(C)CCc1ccoc1 |  |  |  |  |  |  |  |  | 12.5 (≈ 39.5 µM) | 10 | 25 (≈ 79 µM)
COC(=O)C1=CC[C@H](O)[C@@H]2[C@@](C)(CCc3ccoc3)[C@H](CO)CC[C@@]12C | inactive | inactive | inactive | inactive | inactive | inactive | inactive | inactive |  |  | 
C[C@@H]1CC[C@@]2(C)C(C(=O)O)=CCC[C@@H]2[C@@]1(C)CCc1ccoc1 |  |  |  |  |  |  |  |  | 0.78 (≈ 2.46 µM) |  | 
CC(=O)OC[C@@H]1CC[C@@]2(C)C(C(=O)O)=CCC[C@@H]2[C@@]1(C)CCc1ccoc1 | inactive | inactive | inactive | inactive | inactive | inactive | inactive | inactive |  |  | 
